Data set [1] concerns Candida tropicalis. Description: Broth microdilution antifungal MIC (NCCLS). Type of data set: cell-based. The note with it: RPMI-1640, 35° C., 24-48 hours. As to the method: (§1) The antifungal activity of Hygroscopene A is determined by a broth microdilution method as recommended by the National Committee for Clinical Laboratory Standard (NCCLS) (1, 2). Sterile, disposable, multiwell plates (96 U-shaped wells) containing serial dilutions of Hygroscopene A and a control drug (Amphotericin B) are prepared in a 100 μl volume with RPMI-1640 broth supplemented with 0.2% sodium bicarbonate and […] [3-(N-morpholino) propanesulfonic acid] buffer. RPMI-1640 is a completely synthetic medium that supports the growth of most fungi. Antimicrobial agent concentrations ranged from 0.06-64 μg/ml. Five colonies from 24-hour old yeast culture or 48-hour old filamentous fungi culture were suspended in 0.85% saline. The suspensions are diluted in RPMI-1640 broth and inoculated in to plates (100 μl/well) containing antimicrobial agents. The final inocula of yeast or fungi are 0.5-2.5×10^3 CFU/ml and 0.4×10^4-5×10^4 CFU/ml respectively. Plates are incubated at 35° C. for 24-72 hours in ambient air. Hygroscopene A is tested against a panel of pathogenic yeast and filamentous fungi, which consisted of Candida sp. and Aspergillus sp. The yeast and fungal strains tested are clinical isolates or were purchased from American Type Culture Collection (ATCC) (Rockville, Md.). […] The MIC values for yeast are determined after 24-48 hours of incubation. For filamentous fungi, the MIC is determined after 72 hours of incubation.
Background: Broth dilution looks for growth in wells or tubes with falling amounts of substance.

The test system of data set [2] is Candida albicans. Description: Broth microdilution antifungal MIC (NCCLS). Type of data set: cell-based. The settings on record: RPMI-1640, 35° C., 24-48 hours. As to the method: as §1
The test system of data set [3] is Candida lustitaniae. The data set can be described thus: Broth microdilution antifungal MIC (NCCLS). Type of data set: cell-based. The settings on record: Candida lustitaniae 94-3, RPMI-1640, 35° C., 24-48 hours. As to the method: as §1
Data set [4] concerns Candida parapsilosis. The data set can be described thus: Broth microdilution antifungal MIC (NCCLS). The note with it: RPMI-1640, 35° C., 24-48 hours. Type of data set: cell-based. As to the method: as §1
Data set [5] concerns Candida rugosa. The data set can be described thus: Broth microdilution antifungal MIC (NCCLS). Type of data set: cell-based. The settings on record: Candida rugosa 94-10, RPMI-1640, 35° C., 24-48 hours. As to the method: as §1
Data set [6] relates to Candida pseudotropicalis. Description: Broth microdilution antifungal MIC (NCCLS). The format is cell-based. The settings on record: Candida pseudotropicalis ATCC 28838, RPMI-1640, 35° C., 24-48 hours. As to the method:
as §1

In data set [7] the test system is Candida krussii. Description: Broth microdilution antifungal MIC (NCCLS). The settings on record: Candida krussii 94-2, RPMI-1640, 35° C., 24-48 hours. Type of data set: cell-based. As to the method:
as §1

Data set [8] concerns Aspergillus niger. Description: Broth microdilution antifungal MIC (NCCLS). The format is cell-based. The note with it: Aspergillus niger ATCC 26933, RPMI-1640, 35° C., 72 hours. As to the method:
as §1

Data set [9] can be described thus: Solubility (physico-chemical properties). The format is physicochemical. The settings on record: solvents MeOH, EtOH, DMSO.
The test system of data set [10] is Aspergillus fumigatus. Description: Broth microdilution antifungal MIC (NCCLS). Type of data set: cell-based. The settings on record: Aspergillus fumigatus S-430; RPMI-1640, 35° C., 72 hours. As to the method: as §1

The record followed here is patent US20040138302A1, “Antifungal antibiotics” (Wyeth Holdings Corporation, priority 2002, published 2004).

≈ marks a conversion by molar mass, not a printed value. Like-named read-outs stand apart in the source and are kept apart here.

By MIC is commonly meant the smallest concentration in the dilution series that meets the test's criterion for growth inhibition. Consider `C[C@@H]1[C@H](O)[C@@H](C)/C=C/C=C/C=C/C=C/C=C/C=C/C=C/[C@H](O[C@@H]2O[C@H](C)[C@@H](O)[C@H](N)[C@@H]2O)C[C@@H]2O[C@](O)(C[C@@H](O)C[C@@H](O)[C@H](O)CC[C@@H](O)C[C@@H](O)CC(=O)O[C@H]1C)C[C@H](O)[C@H]2C(=O)O` [Amphotericin B, reference compound], for which the minimum inhibitory concentration (MIC) stood at 0.25 µg/mL (≈ 0.271 µM) in [1] (Candida tropicalis 94-13); 0.25 µg/mL (≈ 0.271 µM) in [1] (Candida tropicalis 94-14); 0.125 µg/mL (≈ 0.135 µM) in [2] (Candida albicans 1063); 0.125 µg/mL (≈ 0.135 µM) in [2] (Candida albicans 1117); 0.25 µg/mL (≈ 0.271 µM) in data set [2] (Candida albicans ATCC 90028); 0.125 µg/mL (≈ 0.135 µM) in [3]. Moreover, the minimum inhibitory concentration (MIC) in data set [4] (Candida parapsilosis 94-8) stood at 0.25 µg/mL (≈ 0.271 µM); in data set [4] (Candida parapsilosis 94-9), 0.25 µg/mL (≈ 0.271 µM); in [4] (Candida parapsilosis ATCC 90018), 0.25 µg/mL (≈ 0.271 µM); in data set [5], 0.50 µg/mL (≈ 0.541 µM); in data set [6], 0.25 µg/mL (≈ 0.271 µM); in data set [7] it was 0.50 µg/mL (≈ 0.541 µM). Further, the MIC in data set [8] is 0.50 µg/mL (≈ 0.541 µM).
With `C\C(=C/C=C/C=C/CC/C=C/C(C)C(O)C(C)C(O)/C=C/C=C/C=C/C=C/C=C/C=C/CC(OS(=O)(=O)O)C(C)C(=O)CC(O)CC(O)/C=C/CC(O)CC(O)/C=C/CC(O)CC(O)CC(O)/C=C/CC(O)CC(O)CCCNC(=N)N)C(=O)O` (stereo not drawn) [Hygroscopene A], the Solubility entry in [9] was “Soluble in MeOH, EtOH, DMSO”. Moreover, the MIC was 1 µg/mL (≈ 0.821 µM) in data set [1] (Candida tropicalis 94-13, read-out: MIC); 1.0 µg/mL (≈ 0.821 µM) in [1] (Candida tropicalis 94-14); 2 µg/mL (≈ 1.64 µM) in data set [10]; 2 µg/mL (≈ 1.64 µM) in [2] (Candida albicans, ATCC90028, Candida albicans ATCC 90028, read-out: MIC); 2 µg/mL (≈ 1.64 µM) in data set [2] (Candida albicans, Candida albicans 1063, read-out: MIC); 1 µg/mL (≈ 0.821 µM) in data set [2] (Candida albicans, Candida albicans 1117, read-out: MIC). The minimum inhibitory concentration (MIC) in data set [3] (read-out: MIC) was determined as 1 µg/mL (≈ 0.821 µM); in data set [4] (Candida parapsilosis 94-9), 2.0 µg/mL (≈ 1.64 µM); in data set [4] (Lodderomyces parapsilosis, ATCC90018, Candida parapsilosis ATCC 90018, read-out: MIC), 2 µg/mL (≈ 1.64 µM); in data set [4] (Lodderomyces parapsilosis, Candida parapsilosis 94-8, read-out: MIC), 2 µg/mL (≈ 1.64 µM); in data set [5] (Diutina rugosa, read-out: MIC) it was 1 µg/mL (≈ 0.821 µM); in data set [6] (Kluyveromyces marxianus, ATCC28838, read-out: MIC), 2 µg/mL (≈ 1.64 µM). The MIC in data set [7] (read-out: MIC) worked out at 1 µg/mL (≈ 0.821 µM); in [8] (ATCC26933, read-out: MIC), 8 µg/mL (≈ 6.57 µM).
For `C\C(=C/C=C/C=C/CC/C=C/C(C)C(O)C(C)C(O)/C=C/C=C/C=C/C=C/C=C/C=C/CC(OS(=O)(=O)O)C(C)C(=O)CC(O)CC(O)/C=C/CC(O)CC(O)/C=C/CC(O)CC(O)CC(O)/C=C/CC(O)CC(O)CCCN)C(=O)O` (stereo not drawn) [Hygroscopene B], in data set [9], the Solubility entry is “Soluble in MeOH, EtOH, DMSO”.
Take `C\C(=C/C=C/C=C/CC/C=C/C(C)C(O)C(C)C(O)/C=C/C=C/C=C/C=C/C=C/C=C/CC(O)C(C)C(=O)CC(O)CC(O)/C=C/CC(O)CC(O)/C=C/CC(O)CC(O)CC(O)/C=C/CC(O)CC(O)CCCN)C(=O)O` (stereo not drawn) [Hygroscopene C]: the Solubility entry in [9] is on record as “Soluble in MeOH, EtOH, DMSO”.
